According to patent US7211566B2 (Universite De Sherbrooke, priority 2003, dated 2007):
Square brackets hold non-standard residues; d marks the D form. Peptide text beside a SMILES is read from it. Oic = O=C(O)[C@@H]1C[C@@H]2CCCC[C@@H]2N1; d2Nal = N[C@H](Cc1ccc2ccccc2c1)C(=O)O; αMeF = C[C@](N)(Cc1ccccc1)C(=O)O; Orn = NCCC[C@H](N)C(=O)O

Legend:
[1] = molecular target: T1, BKB1 receptor (Oryctolagus cuniculus, UniProt P48748); experiment: Isolated rabbit aorta (rbA) organ bath, antagonist potency pA2; format: cell-based; conditions: rabbit aorta without endothelium; mean ± SEM of 4–7 experiments; read-out: Antagonist potencies (pA2) BKB1-R rbA (converted)
T1 construct: The rabbit aorta without endothelium (which contains only the BKB1 receptor); from tissue; host or cells: isolated rabbit aorta (rbA) without endothelium
T1 sequence (P48748 1-352): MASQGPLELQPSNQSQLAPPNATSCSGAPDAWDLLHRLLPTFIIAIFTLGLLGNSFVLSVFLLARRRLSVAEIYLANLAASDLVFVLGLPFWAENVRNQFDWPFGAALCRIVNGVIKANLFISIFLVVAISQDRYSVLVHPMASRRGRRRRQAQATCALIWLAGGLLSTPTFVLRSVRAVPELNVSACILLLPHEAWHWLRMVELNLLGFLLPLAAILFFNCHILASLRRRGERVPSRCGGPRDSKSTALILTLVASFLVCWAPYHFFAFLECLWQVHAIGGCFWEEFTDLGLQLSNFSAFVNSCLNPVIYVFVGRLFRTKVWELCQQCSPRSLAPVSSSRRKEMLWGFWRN
Experimental: (§1) Selected antagonists were tested for activities in three isolated organs: (1) the rabbit aorta (rbA), (2) the human umbilical vein (hUV) and (3) the rabbit jugular vein (rbJV).
(§2) All details regarding the procurements of human umbilical cords and rabbit vessels as well as, the procedures for preparing the isolated organs and the experimental protocols are described in these respective publications: rbA (Rioux et al. 1973, Can J Physiol Pharmacol 51, 114–121); hUV (Gobeil et al. 1996, Br J Pharmacol 118, 289–294), and rbJV (Gaudreau et al. 1981, Can J Physiol Pharmacol 59, 371–379).
The rabbit aorta without endothelium (which contains only the BKB1 receptor) was used to determine the antagonistic activities of each compound.
(§3) The rabbit jugular vein (a pure BKB2 receptor system) was used to exclude any action of the new compounds on the BKB2 receptor and thus establish their selectivity. All tissues were treated with captopril (1 μM) to prevent the degradation of the peptidic agonists.
(§4) Repeated applications of a single and double concentration of BK (on rbJV,) or of desArg^9BK (rbA and hUV) were made in the absence and in presence of the various peptides to evaluate their apparent affinities as antagonists, in terms of pA2 (-log10 of the molar concentration of antagonist that reduces the effect of a double concentration of agonist to that of a single one) (Schild 1947, Br J Pharmacol 2, 189–206).

[2] = molecular target: T2, BKB2 receptor (Oryctolagus cuniculus, UniProt Q28642); experiment: Isolated rabbit jugular vein (rbJV) organ bath, antagonist potency pA2; format: cell-based; conditions: BK as agonist, read-out: Antagonist potencies (pA2) BKB2-R rbJV (converted)
T2 construct: The rabbit jugular vein (a pure BKB2 receptor system); from tissue; host or cells: isolated rabbit jugular vein (rbJV)
T2 sequence (Q28642 1-367): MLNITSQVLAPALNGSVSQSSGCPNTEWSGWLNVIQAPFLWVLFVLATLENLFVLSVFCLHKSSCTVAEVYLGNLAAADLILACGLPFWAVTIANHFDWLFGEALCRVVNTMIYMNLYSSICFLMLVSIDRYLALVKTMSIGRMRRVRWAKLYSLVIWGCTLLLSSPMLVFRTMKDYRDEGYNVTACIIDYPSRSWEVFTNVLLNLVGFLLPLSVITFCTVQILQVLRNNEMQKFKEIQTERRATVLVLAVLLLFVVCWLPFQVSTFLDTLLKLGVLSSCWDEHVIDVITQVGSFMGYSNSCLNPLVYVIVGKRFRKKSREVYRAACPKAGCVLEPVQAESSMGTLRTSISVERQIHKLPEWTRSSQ
Experimental: as §1, §2, §3, §4

[3] = molecular target: T3, BKB1 receptor (Homo sapiens, UniProt P46663); experiment: Isolated human umbilical vein (hUV) organ bath, antagonist potency pA2; format: cell-based; set-up: the hUV that contains BKB1 and BKB2 receptors; from tissue; host or cells: isolated human umbilical vein (hUV); conditions: human umbilical vein treated with HOE 140; mean ± SEM of 4–7 experiments; read-out: Antagonist potencies (pA2) BKB1-R hUV (converted)
T3 sequence (P46663 1-353): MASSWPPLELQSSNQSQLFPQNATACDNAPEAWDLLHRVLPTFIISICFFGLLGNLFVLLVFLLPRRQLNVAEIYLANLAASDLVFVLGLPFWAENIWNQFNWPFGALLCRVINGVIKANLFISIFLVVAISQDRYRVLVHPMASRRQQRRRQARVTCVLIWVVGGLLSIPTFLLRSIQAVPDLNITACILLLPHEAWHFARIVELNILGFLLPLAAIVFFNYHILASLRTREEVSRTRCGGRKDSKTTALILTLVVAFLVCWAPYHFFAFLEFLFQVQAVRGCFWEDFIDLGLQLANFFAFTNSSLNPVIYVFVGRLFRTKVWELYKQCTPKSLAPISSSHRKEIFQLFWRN
Experimental: as §1, §2, §3, §4

[4] = molecular target: T4, aminopeptidase P (AmP) (Homo sapiens, UniProt Q9NQW7); experiment: In vitro metabolic stability against human platelets AmP; format: in vitro ADME; conditions: mean ± SEM of 3 experiments
T4 construct: from tissue; host or cells: human platelets, freeze-thawed and sonicated, 43 000 x g supernatant
Experimental: These assays were performed using three enzyme preparations: purified angiotensin converting enzyme (ACE; from rabbit lung), human plasma as a, source of aminopeptidase M (AmM) and human platelets as a source of aminopeptidase P (AmP).
Human platelet AmP was prepared as described by Maggiora et al. (1999, J Med Chem 42, 2394–2402). Human platelets (40 ml) were centrifuged at 250×g for 7 min at room temperature. The resulting supernatant was recentrifuged at 2790×g for 15 min at room temperature. Pellets were collected, resuspended in 40 ml of phosphate-buffered saline (PBS) containing 3.5% of sodium citrate, and then re-centrifuged at 2790×g for 15 min at room temperature. This washing step was repeated. Pellets were resuspended in 4 ml of PBS-sodium citrate, snap-frozen in liquid nitrogen, thawed at 37° C., sonicated briefly, and then centrifuged at 43 000×g for 2 h at 4° C. (Sorvall RC 5B, ss-34 rotor). The resulting supernatant was used for enzyme assays as described in Neugebauer et al. (Neugebauer et al. 2002, supra).

T4 sequence (Q9NQW7 whole entry): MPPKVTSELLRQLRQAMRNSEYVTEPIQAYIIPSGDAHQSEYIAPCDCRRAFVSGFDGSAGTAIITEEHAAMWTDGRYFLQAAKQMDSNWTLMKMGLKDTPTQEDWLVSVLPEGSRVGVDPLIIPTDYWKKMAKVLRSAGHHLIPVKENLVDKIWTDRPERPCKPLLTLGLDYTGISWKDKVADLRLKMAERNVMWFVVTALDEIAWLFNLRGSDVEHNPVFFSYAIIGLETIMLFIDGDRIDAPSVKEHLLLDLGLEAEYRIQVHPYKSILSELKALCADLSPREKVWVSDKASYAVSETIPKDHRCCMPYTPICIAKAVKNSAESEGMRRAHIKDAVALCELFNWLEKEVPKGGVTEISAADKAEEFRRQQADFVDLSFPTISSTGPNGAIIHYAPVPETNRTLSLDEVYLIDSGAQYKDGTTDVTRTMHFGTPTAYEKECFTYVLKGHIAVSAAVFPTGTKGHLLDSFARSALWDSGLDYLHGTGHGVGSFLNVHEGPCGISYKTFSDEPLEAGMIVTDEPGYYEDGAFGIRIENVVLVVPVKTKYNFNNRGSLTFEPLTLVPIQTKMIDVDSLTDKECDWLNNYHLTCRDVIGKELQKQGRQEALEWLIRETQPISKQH

`CC[C@H](C)[C@H](NC(=O)[C@@H](Cc1ccc2ccccc2c1)NC(=O)[C@H](CO)NC(=O)[C@](C)(Cc1ccccc1)NC(=O)CNC(=O)[C@@H]1CCCN1C(=O)[C@@H]1C[C@@H]2CCCC[C@@H]2N1C(=O)[C@H](CCCNC(=N)N)NC(=O)[C@H](CCCCN)NC(C)=O)C(=O)O` [Ac-Lys[Oic^2,(α-Me)Phe^5,D-βNal^7,Ile^8]desArg^9BK] (Ac-KR[Oic]PG[αMeF]S[d2Nal]I-OH) was tested, and the Kb [1] was 3.16 nM, the Kb [2] was > 1000 nM and the Kb [3] was 3.72 nM. The “Peptide metabolism (%) Human platelets AmP” value [4] was 12 ± 4%.
In the case of `CC[C@H](C)[C@H](NC(=O)[C@@H](Cc1ccc2ccccc2c1)NC(=O)[C@H](CO)NC(=O)[C@](C)(Cc1ccccc1)NC(=O)CNC(=O)[C@@H]1CCCN1C(=O)[C@@H]1C[C@@H]2CCCC[C@@H]2N1C(=O)[C@H](CCCNC(=N)N)NC(=O)[C@H](CCCN)NC(C)=O)C(=O)O` [compound c, Ac-Orn[Oic^2,(α-Me)Phe^5,D-βNal^7,Ile^8]desArg^9BK] (Ac-[Orn]R[Oic]PG[αMeF]S[d2Nal]I-OH), the Kb [1] is reported as 2.29 nM, the Kb [2] is reported as > 1000 nM and the Kb [3] is reported as 3.47 nM. The “Peptide metabolism (%) Human platelets AmP” value [4] was 12 ± 2%.
